This note sets out measurements from patent publication US10793531B2, “Triazole derivatives and their use as PDE4 activators” (MIRONID LIMITED, priority 2015, dated 2020).

One test relates to MDCK cells. Description: Inhibition of in vitro cyst formation in MDCK cells (Experiment 3). The format is cell-based, canine. The note with it: compound added every 2 days from day 0 to day 20, with forskolin and vasopressin; FIG. 7. As to the method:
In this study, the well-established three-dimensional (3D) MDCK cell model was used to investigate the effects of PDE4 long form activators on the formation of kidney cysts and evaluate their potential in the treatment of polycystic kidney diseases. 3D cysts were generated based on the method of Mao et al. (Mao, Z., Streets, A. J., Ong, A. C. M. Am. J. Physiol. Renal Physiol. 300(6): F1375-F1384, 2011), with some modifications. MDCK cells (50,000 cells/well) were seeded into collagen (Life Technologies; final concentration 1 mg/mL), containing 17 mM NaOH in DMEM, supplemented with 2% (v/v) FBS, 2 mM L-glutamine and 2 mM L-glutamine, 1,000 U penicillin and 1,000 μg streptomycin (DMEM-2% FBS), on ice. Upon gelling at 37° C., 1 mL of DMEM-2% FBS was added along with the test compound indicated in the presence of 10 μM forskolin (Sigma) and 1 μg/mL [Arg^8]-vasopressin acetate salt (Sigma). Media was replenished every 2 days for 20 days; at every feed, test compound, forskolin and vasopressin were added.
Phase-contrast images were obtained on the Motic microscope (×200 magnification) every 2 days for 20 days. Per condition, 10 images were taken (in duplicate) and the average cyst radius measured.

For test [1], the target named is T1, full length human PDE4B2 short isoform (Homo sapiens, UniProt Q07343).
T1 construct: the full length human PDE4B2 short isoform; made in house; cytosol fraction of the lysate
T1 sequence (Q07343 1-564 isoform Q07343-2): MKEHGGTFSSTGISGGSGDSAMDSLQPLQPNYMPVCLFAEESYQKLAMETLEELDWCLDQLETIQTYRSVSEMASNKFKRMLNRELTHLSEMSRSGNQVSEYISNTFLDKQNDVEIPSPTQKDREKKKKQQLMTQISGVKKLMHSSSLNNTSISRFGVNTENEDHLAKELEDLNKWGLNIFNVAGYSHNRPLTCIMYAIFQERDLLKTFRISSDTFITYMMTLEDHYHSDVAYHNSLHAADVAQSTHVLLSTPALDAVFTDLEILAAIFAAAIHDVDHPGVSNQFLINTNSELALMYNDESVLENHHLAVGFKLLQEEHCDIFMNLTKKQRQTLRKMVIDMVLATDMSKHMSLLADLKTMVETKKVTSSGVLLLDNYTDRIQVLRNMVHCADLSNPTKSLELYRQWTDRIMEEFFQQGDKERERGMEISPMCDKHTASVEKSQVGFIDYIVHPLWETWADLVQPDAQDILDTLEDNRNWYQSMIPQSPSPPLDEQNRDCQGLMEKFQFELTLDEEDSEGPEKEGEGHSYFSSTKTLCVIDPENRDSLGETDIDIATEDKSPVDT
Description: PDE4 radio-assay, PDE4B2 short form (Experiment 1). The format is biochemical. The note with it: method of Experiment 1; FIG. 4. As to the method:
One suitable method of detecting whether or not a compound is capable of serving as an activator of a PDE4 long form is using a two-step radio-assay procedure described in Experiment 1. In summary, the method involves incubating a PDE4 long form with a test small molecule activator, together with [^3H]-labelled cAMP to assess alterations in the breakdown of cAMP to the 5′-adenosine monophosphate (5′-AMP) product. A sample of the reaction mixture from such an incubation is subsequently treated with snake venom 5′-nucleotidase to allow conversion of the nucleotide [^3H]-labelled 5′-AMP to the uncharged nucleoside [^3H]-labelled adenosine, which can be separated and quantified to assess PDE4 activity and the effect of the test compound (Thompson, W. J. and Appleman, M. M. Biochemistry 10: 311-316, 1971, with some modifications as described in: Marchmont, R. J. and Houslay, M. D. Biochem J. 187: 381-92, 1980).
HEK 293 cells were transfected with pDEST™ PDE4 expression vectors using Lipofectamine LTX/Plus reagent (Invitrogen) as outlined by the manufacturer and clonal isolates expanded to obtain cell lines that stably expressed the full-length human PDE4D5, PDE4A4 and PDE4B1 long isoforms and the full length human PDE4B2 short isoform. These were called the HEK-PDE4D5, HEK-PDE4A4, HEK-PDE4B1 and HEK-PDE4B2 cell lines, respectively.
HEK-PDE4D5 cells were seeded out in 100 mm plates and incubated at 37° C. in an atmosphere of 5% CO2, 95% air. Cell lysates were prepared using KHEM buffer [50 mM KCl, 10 mM EGTA, 50 mM HEPES (pH 7.2), 1.92 mM MgCl2].
To prepare the cell lysates, the 100 mm plates containing the cells were placed on ice and washed with ice-cold PBS (phosphate buffered saline, pH 7.4). KHEM buffer (500 μl) was added to the cells. Cells were then scraped off the plate and triturated using a needle (BD Microlance™ 0.8, 40 mm). The lysed cells were then centrifuged at 2000 rpm for 10 minutes to remove cell debris and the supernatant (cell lysate containing recombinant PDE4D5) was transferred to a fresh tube and kept on ice.
The cell lysate containing recombinant PDE4D5 was transferred into a centrifuge tube and placed into an ultracentrifuge (BECKMAN COULTER) and spun at high speed (100,000 g) for 30 minutes at 4° C. The cytosol fraction was then collected and its protein amount determined using a BCA protein assay.
PDE assays were performed using a final concentration of 10 mM Tris/5 mM MgCl2 and 1 μM [3H]-cAMP (Perkin Elmer) plus PDE4D5 cell lysate cytosol fraction, containing over-expressed PDE4D5, with and without test compound. Incubations were performed at 30° C. for 5 minutes. […] Tubes were vortexed thoroughly to mix and the recovered [3H]-adenosine was quantified by measuring counts over 1 minute in a scintillation counter.

As for `CCc1nc(-c2ccc(Cl)c(F)c2)nn1CC(=O)NCc1cccc(F)c1` [Example A, N-(3-Fluorobenzyl)-2-[3-(4-chloro-3-fluorophenyl)-5-ethyl-1H-1,2,4-triazol-1-yl]acetamide], in the test with MDCK cells, the “in vitro cyst formation in MDCK cells, inhibition (in words)” value is “inhibition of in vitro cyst formation”. Also, in test [1], the “activation of PDE4B2, a short form of PDE4 (in words)” value is listed as “lack of activation”.
